Patent EP3222712A1, “ALCOHOL DEHYDROGENASE FROM PICHIA PASTORIS AND USE THEREOF” (priority 2016, dated 2017)

Assays:
[1] = target: T1, alcohol dehydrogenase from Pichia pastoris (PPADH) (Komagataella phaffii, UniProt C4R4L0); test: photometric assay, oxidation of alcohols by purified PPADH (NADP+, 340 nm); type: biochemical, Pichia pastoris GS 115; conditions: for relative activity: 6.6 U/mg set to 100%; for specific activity: purified PPADH, 10 mM substrate, 0.2 mM NADP+, tris HCl pH 9, 25°C
Experimental: (§1) In a first step, crude extract containing recombinant alcohol dehydrogenase from Pichia pastoris via cell disruption of E. coli BL21(DE3) overexpressing in vector pET28a-PPADH carrying an N-terminal 6xHis tag. Cells were resuspended in 10 mM tris HCl buffer (pH 7) to yield a 25% cell suspension and were disrupted by sonification under cooling. Three cycles of 2 min of 25% power output followed by 1 min cooling were used. After repeated centrifugation a cell-free crude extract was obtained. Afterwards the PPADH was purified as described in example 3c).
(§2) Determination of the enzymatic activity of the purified PPADH can be determined via a oxidation or reduction reaction. For determination of the reduction the following compounds were used: tris HCl buffer (100 mM, pH 7), 0.2 mM NADPH, 10 mM substrate selected from the aldehydes and ketones as given in Table 2 and 10 µl enzyme (purified PPADH). For determination of the oxidation the following compounds were used: tris HCl buffer (100 mM, pH 9), 0.2 mM NADP^+, 10 mM substrate selected from the alcohols as given in Table 3 and 10 µl enzyme (purified PPADH). The reaction was performed in 1 cm-cuvettes. The compounds were mixed in the cuvette used for the experiment, which was placed in the photometer and data recording was started. The enzyme solution was added only immediately before the start of the measurement. The activity of the enzyme was determined by photometric detection of the concentration of NADPH after a certain time interval. Measurement was carried out at a temperature of 25°C, a wavelength of 340 nm and over a time interval of 1 min.

[2] = target: T1, alcohol dehydrogenase from Pichia pastoris (PPADH); test: photometric assay, reduction of aldehydes and ketones by purified PPADH (NADPH, 340 nm); type: biochemical, Pichia pastoris GS 115; conditions: for relative activity: 38.6 U/mg with benzaldehyde set to 100%; for specific activity: purified PPADH, 10 mM substrate (sample 4: 20 mM), 0.2 mM NADPH, tris HCl pH 7, 25°C
Experimental: as §1
as §2, with “min. Table 2: enzymatic activity of PPADH regarding the reduction of different substrates determined by photometry” for “min.”

[3] = tested on: alcohol dehydrogenase from Pichia pastoris (PPADH); test: biotransformation by purified PPADH with GDH co-factor regeneration, gas chromatography; type: biochemical; conditions: 2 hours reaction time
[4] = acetophenone derivatives, related to the alcohol formed
[5] = CF3-ketone derivatives, alcohol formed related to the reduction of (S)-ketone

T1 sequence (C4R4L0 entry or part of it): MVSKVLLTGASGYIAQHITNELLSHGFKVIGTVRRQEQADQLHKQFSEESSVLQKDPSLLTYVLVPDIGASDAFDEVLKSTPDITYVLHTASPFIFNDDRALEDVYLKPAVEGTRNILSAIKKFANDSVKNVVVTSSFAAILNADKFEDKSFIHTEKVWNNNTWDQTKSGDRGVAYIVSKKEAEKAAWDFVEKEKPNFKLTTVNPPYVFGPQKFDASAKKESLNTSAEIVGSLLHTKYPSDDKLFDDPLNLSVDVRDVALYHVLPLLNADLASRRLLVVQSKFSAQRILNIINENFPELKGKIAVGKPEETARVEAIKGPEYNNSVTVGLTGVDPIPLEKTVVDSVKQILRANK

| Compound | specific activity [1] [U/mg] | specific activity [2] [U/mg] | also measured |
| --- | --- | --- | --- |
| CCCC(C)CO (stereo not drawn) [compound 18] | 2.04 | – | relative activity [1]: 30.9% |
| CCCC(=O)CC(=O)OCC [compound 13] | – | 0.5 | relative activity [2]: 1.3% |
| CC(CO)c1ccccc1 (stereo not drawn) [2-phenyl-1-propanol] | < 0.5 | – | – |
| OC1C=CCCC1 (stereo not drawn) [2-cyclohexen-1-ol] | < 0.5 | – | – |
| C=CC(O)CCCCC (stereo not drawn) [octen-3-ol] | < 0.5 | – | – |
| C=CCC[C@H](C)O [compound 24] | 3.79 | – | relative activity [1]: 57.4% |
| CC(=O)CC(O)(c1ccccc1)C(F)(F)F (racemic) [compound 4] | – | 37.5 | relative activity [2]: 97.2% |
| O=C(CO)c1ccccc1 [2-Hydroxyacetophenone] | – | – | level of turnover ([3]; acetophenone derivatives): + (+=1-5%); turnover [3, 4]: <5% |
| CCCCC[C@H](C)O [compound 25] | 2.09 | – | relative activity [1]: 31.6% |
| CC(=O)CCc1ccccc1 [benzylacetone] | – | < 0.5 | – |
| C[C@@H](CO)c1ccccc1 [compound 15] | 1.06 | – | relative activity [1]: 16.0% |
| OCc1ccccc1 [benzylalcohol] | < 0.5 | – | – |
| CCOC(C)=O [ethylacetate] | – | < 0.5 | – |
| CC1CC(=O)CC(C)(C)C1 (stereo not drawn) [3,3,5-trimethylcyclohexanone] | – | < 0.5 | – |
| CC(C)=CCCC(C)CC=O (stereo not drawn) [compound 10] | – | 27.8 | relative activity [2]: 71.9% |
| C=CC(O)CC (stereo not drawn) [1-penten-3-ol] | < 0.5 | – | – |
| CCCC=O [compound 5] | – | 68.0 | relative activity [2]: 176.2% |
| CC(C)[C@@H]1CC[C@@H](C)CC1=O [(-)-menthone] | – | < 0.5 | – |
| CCOC(=O)C(Cl)C(C)=O (stereo not drawn) [compound 11] | – | 5.7 | relative activity [2]: 14.7% |
| CC(=O)c1ccccc1 [compound 2] | – | 0.06 | relative activity [2]: 0.2% |
| CC1(C)COC(=O)C1=O [dihydro-4,4-dimethyl-2,3-furandion] | – | < 0.5 | – |
| CC(=O)CC(O)(c1ccc(Cl)cc1)C(F)(F)F (racemic) [Nod362] | – | – | level of turnover ([3]; CF3-ketone derivatives): +++++ (+++++ = 75 - 100 %); turnover ([3]; CF3-ketone derivatives): quant. |
| CCCCCCC(C)O (stereo not drawn) [compound 26] | 0.57 | – | relative activity [1]: 8.7% |
| CCC(=O)c1ccccc1 [propiophenone] | – | < 0.5 | – |
| COCC(=O)c1ccccc1 [2-Methoxyacetophenone] | – | – | level of turnover ([3]; acetophenone derivatives): - (-=0-1%); turnover [3, 4]: <1% |

| Compound | specific activity [1] [U/mg] | specific activity [2] [U/mg] | also measured |
| --- | --- | --- | --- |
| CCC(O)CO (stereo not drawn) [1,2-butanediol] | < 0.5 | – | – |
| O=C(c1ccc(Cl)cc1)C(F)(F)F [4'-Chloro-2,2,2-trifluoro acetophenone] | – | – | level of turnover ([3]; acetophenone derivatives): ++ (++=5-20%); turnover [3, 4]: 12.4% |
| CCC(=O)C(O)CC (stereo not drawn) [4-hydoxy-3-hexanone] | – | < 0.5 | – |
| CC(=O)c1ccccc1 [acetophenone] | – | – | level of turnover ([3]; acetophenone derivatives): ++ (++=5-20%); turnover [3, 4]: 7.8% |
| CC(O)c1ccc(Cl)cc1 (stereo not drawn) [1-(4-chlorophenyl)ethanol] | < 0.5 | – | – |
| CCC/C=C/C=O [compound 8] | – | 37.5 | relative activity [2]: 97.2% |
| CCCC(C)O (stereo not drawn) [compound 19] | 2.53 | – | relative activity [1]: 38.3% |
| CCCCCC[C@@H](C)O [(R)-(-)-2-octanol] | < 0.5 | – | – |
| CCCCC(C)=O [2-hexanone] | – | < 0.5 | – |
| OCCc1ccccc1Br [compound 16] | 1.94 | – | relative activity [1]: 29.3% |
| CC(O)C(C)O (stereo not drawn) [2,3-butanediol] | < 0.5 | – | – |
| CC(C)=CCCC(C)=CCO [compound 28] | 1.19 | – | relative activity [1]: 18.0% |
| COc1ccc(C(O)(CC(C)=O)C(F)(F)F)cc1 (stereo not drawn) [Nod365 F6] | – | – | level of turnover ([3]; CF3-ketone derivatives): +++++ (+++++ = 75 - 100 %); turnover ([3]; CF3-ketone derivatives): quant. |
| CC(O)CO (stereo not drawn) [1,2-propanediol] | < 0.5 | – | – |
| C=C(C)[C@@H]1CC=C(C)C(=O)C1 [(-)-carvone] | – | < 0.5 | – |
| CC(C)=CCCC(C)=CCO [compound 27] | 2.16 | – | relative activity [1]: 32.7% |
| CCCCO [compound 17] | 1.11 | – | relative activity [1]: 16.7% |
| CC(C)=O [acetone] | – | < 0.5 | – |
| CCCC[C@H](C)O [compound 23] | 6.61 | – | relative activity [1]: 100.0% |
| O=C1C=CCCC1 [cyclohexen-1-on] | – | < 0.5 | – |
| CCCC(C)C=O (stereo not drawn) [compound 6] | – | 96.1 | relative activity [2]: 248.9% |
| CCOC(=O)CC(=O)CCl [compound 12] | – | 38.0 | relative activity [2]: 98.3% |
| C=CCC[C@@H](C)O [(R)-(-)-5-hexen-2-ol] | < 0.5 | – | – |
| O=C(c1ccccc1)C(F)(F)F [compound 3] | – | 0.10 | relative activity [2]: 0.3% |
| CC(=O)CC(C)=O [compound 14] | – | 3.3 | relative activity [2]: 8.5% |

| Compound | specific activity [1] [U/mg] | specific activity [2] [U/mg] | also measured |
| --- | --- | --- | --- |
| CC12CCC(C1)C(C)(C)C2=O (stereo not drawn) [fenchon] | – | < 0.5 | – |
| CCCCCC=O [compound 7] | – | 28.5 | relative activity [2]: 73.9% |
| CC(=O)c1ccccc1Br [2'-bromoacetophenone] | – | – | level of turnover ([3]; acetophenone derivatives): + (+=1-5%); turnover [3, 4]: <5% |
| O=C(c1ccccc1)C(F)(F)F [2,2,2-Trifluoroacetophenone] | – | – | level of turnover ([3]; acetophenone derivatives): +++ (+++=20-55%); turnover [3, 4]: 24.2% |
| CC(=O)CC(O)(c1ccc(F)cc1)C(F)(F)F (stereo not drawn) [Nod363 F4] | – | – | level of turnover ([3]; CF3-ketone derivatives): +++++ (+++++ = 75 - 100 %); turnover ([3]; CF3-ketone derivatives): quant. |
| COC(C)(CC(C)=O)c1ccccc1 (racemic) [NOD-VI-405] | – | – | level of turnover ([3]; CF3-ketone derivatives): +++ (+++ =20-55 %); turnover [3, 5]: 20.3% |
| O=C(c1ccccc1Br)C(F)(F)F [2'-Bromo-2,2,2-trifluoroacetophenone] | – | – | level of turnover ([3]; acetophenone derivatives): + (+=1-5%); turnover [3, 4]: <5% |
| CCCCCCC(C)=O [2-octanone] | – | < 0.5 | – |
| CC(C)=C1CC[C@@H](C)CC1=O [(+)-pulegon] | – | < 0.5 | – |
| COC(C)(C)CC(C)=O [4-methoxy-4-metyhl-2-pentanone] | – | < 0.5 | – |
| CC[C@H](N)CO [(S)-(+)-2-amino-1-butanol] | < 0.5 | – | – |
| CCCCCCCC(C)=O [2-nonanone] | – | < 0.5 | – |
| CC[C@H](C)O [(S)-(+)-2-butanol] | < 0.5 | – | – |
| CC(=O)CC(C)C [4-methyl-2-pentanone] | – | < 0.5 | – |
| OC1CCCCC1 [cyclohexanol] | < 0.5 | – | – |
| COc1ccccc1[C@@](O)(CC(C)=O)C(F)(F)F [Nod-3d] | – | – | level of turnover ([3]; CF3-ketone derivatives): +++++ (+++++ = 75 - 100 %); turnover [3, 5]: 75.8% |
| C[C@@H](O)c1ccccc1 [(R)-(+)-1-phenylethanol] | < 0.5 | – | – |
| CC(=O)CC(O)(c1ccc(C)cc1)C(F)(F)F (stereo not drawn) [Nod364 F3-Enon] | – | – | level of turnover ([3]; CF3-ketone derivatives): +++++ (+++++ = 75 - 100 %); turnover ([3]; CF3-ketone derivatives): quant. |
| O=Cc1ccccc1 [compound 1, benzaldehyde] | – | 38.6 | relative activity [2]: 100.0% |
| C/C=C/C(C)O (stereo not drawn) [compound 20] | 1.29 | – | relative activity [1]: 19.5% |
| CC(C)=CCC/C(C)=C/C=O [compound 9] | – | 17.8 | relative activity [2]: 46.1% |
| COc1ccccc1C(C)=O [2'-Methoxyacetophenone] | – | – | level of turnover ([3]; acetophenone derivatives): + (+=1-5%); turnover [3, 4]: <5% |
| CCCCC(C)O (stereo not drawn) [compound 22] | 3.62 | – | relative activity [1]: 54.9% |
